These results are taken from PMC5450539, “Anti-Inflammatory Activity and Structure-Activity Relationships of Brominated Indoles from a Marine Mollusc” (Marine Drugs, 2017).

The test system of data set [1] is TNFα production. In words: TNF-alpha inhibition assay (ELISA) in LPS-stimulated RAW264.7 macrophages. It counts as cell-based, mouse. The conditions noted are these: for IC50: max test concentration 50 µg/mL, read-out: TNFα IC50. On the procedure: The amount of TNFα was quantified in cell culture media using murine TNFα ELISA kits (BD bioscience). In brief, the RAW264.7 mouse macrophages (6 × 10^5 cells/mL) were stimulated with LPS (100 ng/mL) 1 h after treatment with several concentrations of extracts (0.08–50 μg/mL). After 18 h, the supernatant was collected and TNFα production was measured by reading the absorbance at 450 nm wavelength on an Anthos Zenyth 200rt microplate reader (Anthos Labtech Instruments). Dexamethasone at a concentration of 2.5 μM was used as a positive control, with a negative control of 0.35% DMSO.
(§1) All data were processed in Microsoft Office Excel 2013 (MS) first to obtain descriptive statistics. One-way Analysis of Variance (ANOVA) followed by Dunnett’s multiple comparisons test was performed using GraphPad Prism version 6.00 for Windows (GraphPad Software, La Jolla, CA, USA, www.graphpad.com), with p < 0.05 considered significant. The inhibitory concentration responsible for a 50% reduction in cell viability or production of inflammatory markers (IC50) was calculated using the regression analysis, Probit in SPSS v21.

The subject of data set [2] is 3T3 ccl-92 mouse fibroblast. Nature of the data set: Crystal violet cytotoxicity assay, 3T3 ccl-92. The data set is classed as cell-based. As to conditions: 24 h incubation; max test concentration 50 µg/mL; > = <50% reduction in viability at max. On the procedure:
(§2) All extract/compounds were dissolved in DMSO and tested at 5 different concentrations of 50, 10, 2, 0.4, and 0.08 μg/mL for all anti-inflammatory assays unless otherwise noted. The final concentration of DMSO was 0.35% v/v for extracts and compounds. All samples were tested in triplicate at each concentration and each assay was independently repeated at least 3 times. The concentrations used for the cytotoxicity assays were 50, 25, 12.5, 6.25. and 3.125 μg/mL.
(§3) To check for cytotoxicity of the extracts and compounds against RAW264.7 mouse macrophage and 3T3 ccl-92 mouse fibroblast cell lines, the crystal violet cytotoxicity test was used according to the published protocol. In brief, RAW264.7 cells were seeded with a density of 2 × 10^4 cells/well in a 96-well plate and then incubated for 18–24 h. The following day the compounds/extracts were added and then incubated for 24 h before the media was aspirated and the cells washed twice in a gentle stream of water. After removing the water, 50 µL of 0.5% crystal violet staining solution were added and the cells were incubated for 20 min at room temperature. The plate was then washed 4 times with water and air dried for 2 h. Finally, 200 μL of methanol was added to each well and incubated for 20 min at room temperature on a rocker. This was followed by measuring the optical density at 570 nm with a plate reader Anthos Zenyth 200rt (Anthos Labtec Instruments, Heerhugowaard, The Netherlands). Chlorambucil was used as a positive control.

Data set [3] concerns NFκB translocation. In words: Assessment of NFκB translocation in LPS-stimulated RAW264.7. The data set is classed as cell-based. The conditions noted are these: Mus musculus, RAW264.7, 40 µg/mL, LPS-stimulated RAW264.7, relative to DMSO + LPS. On the procedure: This assay was performed according to the published protocol in Olivera et al.. RAW264.7 mouse macrophages were seeded at 400,000 cells/well in 800 μL in 4-well chambered slides and incubated overnight. The cells were then incubated with the test samples (40 μg/mL HBG extract, 6-bromoisatin, or 6-bromoindole) for 1 h prior to stimulation with LPS (700 ng/mL) for 30 min. After stimulation, the cells were washed with PBS and fixed with 3.7% paraformaldehyde for 15 min. […] The cells were washed with PBS and incubated with rabbit anti-p65 NFκB antibody (1:500) and goat anti-mouse IκB (1:500) overnight at 4 °C. The following day, the cells were washed again three times with PBS and incubated for 1 h with goat-anti-rabbit IgG conjugated with Alexa Fluor 594 (1:1000) and donkey anti-mouse IgG conjugated with Alexa fluor 488 (1:1000) at room temperature. Finally, the cells were washed with PBS then mounted with Prolong mounting media containing DAPI before visualising using the Olympus Flouview FVi10 confocal microscope (Olympus, Tokyo, Japan). Using ImageJ (v1.50i, National Institutes of Health, Bethesda, MD, USA), an outline was drawn around each nucleus by adjusting the colour threshold of DAPI. Mean fluorescence inside the nucleus was measured, along with several adjacent background readings. The total corrected cellular fluorescence (TCCF) was calculated by applying the equation TCCF = integrated density − (area of selected cell × mean fluorescence of background readings). This TCCF was then used to calculate the %inhibition of the NFκB translocation against the positive control where the cells were treated with LPS in the presence of the Vehicle (0.35% DMSO v/v) in Microsoft Office Excel 2013 (Redmond, WA, USA).

Data set [4] has as its system PGE2 production. Nature of the data set: PGE2 inhibition assay (ELISA) in calcium ionophore-stimulated 3T3 ccl-92 fibroblasts. The data set is classed as cell-based, mouse. As to conditions: for IC50: calcium ionophore-stimulated 3T3 ccl-92, max test concentration 50 µg/mL. Here is the method: The levels of PGE2 were measured in cell media using a Cayman Prostaglandin E2 Express ELISA Kit (Cayman Chemical, Ann Arbor, MI, USA) according to the manufacturer’s instructions. In brief, the 3T3 ccl-92 fibroblasts (1 × 10^5 cells/mL) were grown overnight in a 96-well plate and then treated with extracts/compounds 3 h before being stimulated with Calcium ionophore (50 μM). After 20 min, supernatants were collected and PGE2 production was quantified by measuring the absorbance at 405 nm wavelength with an Anthos Zenyth 200rt (Anthos Labtech Instruments). Indomethacin at a concentration of 100 μM was used as a positive control and ~0.5% DMSO as a negative control.
as §1

Data set [5] in a line: Crystal violet cytotoxicity assay, RAW264.7. As to conditions: mouse. Here is the method: as §2, §3
Data set [6] relates to RAW264.7 mouse macrophage. Nature of the data set: Crystal violet cytotoxicity assay, RAW264.7. The conditions noted are these: 24 h incubation; max test concentration 50 µg/mL; > = <50% reduction in viability at max, ~ = close to 50%. On the procedure:
as §2, §3

Data set [7] deals with nitric oxide (NO) production. Nature of the data set: NO inhibition assay (Greiss) in LPS-stimulated RAW264.7 macrophages. The data set is classed as cell-based, mouse. The conditions noted are these: for IC50: read-out: NO IC50; for NO inhibitory activity (in words): LPS-stimulated RAW264.7, up to 50 µg/mL; for lowest concentration with significant inhibition of NO production: significant vs DMSO control. On the procedure:
RAW264.7 macrophages were incubated 1 h with extracts/compounds prior to the addition of LPS. […] Then, 20 h after the addition of LPS, the supernatant was collected. […] The plates were incubated for 15–20 min in the dark, then read at 550 nm wavelength on an Anthos Zenyth 200rt (Anthos Labtec Instruments). Sodium nitrite was used to prepare a standard curve to quantify the nitrite from the absorbance readings in this assay. All data were processed in Microsoft Office Excel 2013 (MS) first to obtain descriptive statistics. One-way Analysis of Variance (ANOVA) followed by Dunnett’s multiple comparisons test was performed using GraphPad Prism version 6.00 for Windows (GraphPad Software, La Jolla, CA, USA, www.graphpad.com), with p < 0.05 considered significant.

In data set [8] the test system is NO production. Also noted: method as in Matheus et al. [37]. The conditions noted are these: ref Matheus et al. [37]; cited from earlier work.
The test system of data set [9] is PGE2. Also noted: method as in Matheus et al. [37]. The conditions noted are these: ref Matheus et al. [37]; cited from earlier work.
Setting [10] is: Mus musculus, RAW264.7, LPS-stimulated RAW264.7.
Setting [11] is: Mus musculus, RAW264.7, LPS-stimulated RAW264.7, max test concentration 50 µg/mL.

Structures can show the parent of a compound that is named as a salt. Where two headings read alike, the source gives them in different places. Bounds are passed on as bounds.

Consider `Brc1ccc2cc[nH]c2c1` [6-bromoindole], for which the IC50 in data set [1] (LPS-stimulated RAW264.7, listed as 6-bromoindole (11)) was found to be 150 µM; in [1] (setting [10]) it was 150 µM; in data set [4] (Mus musculus, Fibroblast) it was 223 µM; in data set [4] (listed as 6-bromoindole (11)) it was 223 µM; in data set [7] (setting [11]), 187 µM. Besides, the “Cytotoxicity 3T3 ccl-92 (test concentration which causes toxicity)” value in [2] is on record as “NA (not active at maximum test concentration 50 µg/mL)”. In addition, the inhibition at 40 µg/mL in data set [3] was 60.7%. The “lowest concentration with significant PGE2 inhibition” value in data set [4] (p < 0.05 vs solvent control) worked out at 0.08 µg/mL. The compound also returned a viability at 24 h, 50 µg/mL in [5] of 66.4%. For the same compound, the “Cytotoxicity RAW264.7 (test concentration which causes toxicity)” value in data set [6] is >255.04 µM.

Turning to `O=C1Nc2cc(Br)ccc2C1=C1Nc2ccccc2C1=O` [6-bromoindirubin], in [5], the viability at 24 h, 50 µg/mL came to 56.2%. The “NO inhibitory activity (in words)” value in data set [7] is “minimal inhibitory activity”. For the same compound, in [7] (setting [11]), the half-maximal inhibitory concentration (IC50) is > 50 µg/mL.

With `O=C1Nc2cc(Br)ccc2C1=O` [6-bromoisatin], the IC50 was 123 µM in data set [1] (LPS-stimulated RAW264.7, listed as 6-bromoisatin (4)); 123 µM in data set [1] (setting [10]); > 221 µM in data set [4] (Mus musculus, Fibroblast); 120 µM in [7] (setting [11]); 27.1 µg/mL in data set [7] (setting [10]). In addition, in data set [2], the “Cytotoxicity 3T3 ccl-92 (test concentration which causes toxicity)” value was “NA (not active at maximum test concentration 50 µg/mL)”. Besides, the inhibition at 40 µg/mL in [3] is 63.7%. Also, the inhibition at 0.08 µg/mL in data set [4] (Mus musculus, Fibroblast, 0.08 µg/mL) turned out to be 10%. Besides, the inhibition at 50 µg/mL in [4] (Mus musculus, Fibroblast, 50 μg/mL) was determined as 40%. The “lowest concentration with significant inhibition of NO production” value in data set [7] worked out at 0.4 µg/mL.

`CSC1=Nc2cc(Br)ccc2C1=O` [tyrindoleninone]: the IC50 amounted to 157 µM in [1] (LPS-stimulated RAW264.7, listed as Tyrindoleninone (3)); 157 µM in data set [1] (setting [10]); 103 µM in data set [7] (setting [11]); 26.4 µg/mL in data set [7] (setting [10]). For the same compound, in data set [2], the “Cytotoxicity 3T3 ccl-92 (test concentration which causes toxicity)” value was “NA (not active at maximum test concentration 50 µg/mL)”. In data set [5], the viability at 24 h, 50 µg/mL came out at 84.1%. For the same compound, the “lowest concentration with significant inhibition of NO production” value in [7] is 0.08 µg/mL.

Take `CSC1(C2(SC)Nc3cc(Br)ccc3C2=O)Nc2cc(Br)ccc2C1=O` (centres unmarked) [tyriverdin]: the “Cytotoxicity 3T3 ccl-92 (test concentration which causes toxicity)” value in data set [2] is recorded as “NA (not active at maximum test concentration 50 µg/mL)”. Moreover, the “reduction of NO production” value in data set [7] (50 µg/mL (maximum test concentration), relative to DMSO control) is given as “less than 50%”. Besides, the IC50 in data set [7] (setting [11]) is > 97.2 µM. In addition, the “lowest concentration with significant inhibition of NO production” value in [7] was 10 µg/mL.

On to `O=C1Nc2cccc(Br)c2C1=O` [4-bromoisatin], for which the “inhibition of NO production (in words)” value in [8] is “did not inhibit”. In addition, the “inhibition of PGE2 (in words)” value in data set [9] was “did not inhibit”.

As for `O=C1C(=C2Nc3cc(Br)ccc3C2=O)Nc2cc(Br)ccc21` [6,6 dibromoindigo], in data set [2], the “Cytotoxicity 3T3 ccl-92 (test concentration which causes toxicity)” value was “NA (not active at maximum test concentration 50 µg/mL)”. Further, the “NO inhibitory activity (in words)” value in [7] is “minimal inhibitory activity”. Besides, in data set [7] (setting [11]), the IC50 was > 50 µg/mL.

Consider `O=C1Nc2ccc(Br)cc2C1=O` [5-bromoisatin], for which the IC50 came to 38 µM in data set [1] (LPS-stimulated RAW264.7, listed as 5-bromoisatin (9)); 38.1 µM in data set [1] (setting [10]); 152 µM in [7] (LPS-stimulated RAW264.7, max test concentration 50 µg/mL, listed as 5-bromoisatin (9)); 152 µM in [7] (setting [11]); 34.3 µg/mL in data set [7] (setting [10]). The same compound had an inhibition at 50 µg/mL in data set [1] (Mus musculus, RAW264.7, 50 μg/mL) of 100%. The “Cytotoxicity 3T3 ccl-92 (test concentration which causes toxicity)” value in data set [2] was “NA (not active at maximum test concentration 50 µg/mL)”. Also, the viability at 24 h, 50 µg/mL in data set [5] was 55%. Moreover, in data set [6], the “Cytotoxicity RAW264.7 (test concentration which causes toxicity)” value was ~221.21 µM.

In the case of `O=C1Nc2ccc(I)cc2C1=O` [Compound 5-iodoisatin, 5-iodoisatin], the “inhibition of NO production (in words)” value in [8] is “did not inhibit”. In addition, the “inhibition of PGE2 (in words)” value in [9] is recorded as “did not inhibit”.

For the compound `O=C1Nc2ccccc2/C1=C1/Nc2ccccc2C1=O` [indirubin], the “Cytotoxicity 3T3 ccl-92 (test concentration which causes toxicity)” value in data set [2] is “NA (not active at maximum test concentration 50 µg/mL)”. The “NO inhibitory activity (in words)” value in data set [7] was “minimal inhibitory activity”. Also, the IC50 in [7] (setting [11]) was > 50 µg/mL.

With `CSc1[nH]c2cc(Br)ccc2c1OS(=O)(=O)O` [Tyrindoxyl sulfate, tyrindoxyl sulfate], the “Cytotoxicity 3T3 ccl-92 (test concentration which causes toxicity)” value in [2] was “NA (not active at maximum test concentration 50 µg/mL)”. In addition, the IC50 in data set [7] (setting [11]) was > 50 µg/mL.

Consider `C[C@@H]1C[C@H]2[C@@H]3CCC4=CC(=O)C=C[C@]4(C)[C@@]3(F)[C@@H](O)C[C@]2(C)[C@@]1(O)C(=O)CO` [dexamethasone, reference compound], for which the inhibition at 2.5 µM in data set [7] (Mus musculus, RAW264.7, working concentration 2.5 µM, positive control) worked out at 56%.
